The test system of one experiment is Aspergillus fumigatus. Briefly: Antifungal activity measured against Aspergillus fumigatus. It counts as functional.
In the next experiment the test system is Microsporum canis. Briefly: Antifungal activity against Microsporum canis. The format is functional.
Another experiment has as its system Candida parapsilosis. Briefly: Antifungal activity against Candida parapsilosis. It counts as functional. Conditions: Lodderomyces parapsilosis.
In a further experiment the test system is Epidermophyton floccosum. Briefly: Antifungal activity against Epidermophyton floccosum. It counts as functional.
In the next experiment the test system is Sporothrix schenckii. Briefly: Antifungal activity measured against Sporothrix schenck ii. The format is functional.
Experiment [1] in a line: Antifungal activity against Trichophyton mentagrophytes. It counts as functional, Arthroderma benhamiae. Conditions: Trichophyton benhamiae.

These results are taken from ChEMBL document CHEMBL1123199, “Synthesis and structure-activity relationships of naftifine-related allylamine antimycotics” (1986).

Values after ≈ are worked out from the molar mass of the structure shown.

As a reminder, the MIC is the least concentration at which growth counts as inhibited. Consider `CN(CC/C=C/c1ccccc1)Cc1cccc2ccccc12`, for which the minimal inhibitory concentration (MIC) with Aspergillus fumigatus was 100 µg/mL (≈ 332 µM); with Microsporum canis, 3.1 µg/mL (≈ 10.3 µM); against Candida parapsilosis, > 100 µg/mL; against Epidermophyton floccosum it was 6.2 µg/mL (≈ 20.6 µM); against Sporothrix schenckii, 100 µg/mL (≈ 332 µM); in experiment [1], 3.1 µg/mL (≈ 10.3 µM).
Consider `CN(C/C=C/c1cccc2ccccc12)Cc1ccccc1`, for which the MIC in the experiment with Aspergillus fumigatus was > 100 µg/mL; against Microsporum canis, 100 µg/mL (≈ 348 µM); against Candida parapsilosis, > 100 µg/mL; with Epidermophyton floccosum it was 100 µg/mL (≈ 348 µM); against Sporothrix schenckii it was 100 µg/mL (≈ 348 µM); in experiment [1], 100 µg/mL (≈ 348 µM).
For the compound `CN(C/C=C/c1ccccc1)CC1=CCc2ccccc21`, the MIC against Aspergillus fumigatus is > 100 µg/mL; against Microsporum canis, 3.1 µg/mL (≈ 11.3 µM); with Candida parapsilosis, > 100 µg/mL; in the experiment with Epidermophyton floccosum it was 12.5 µg/mL (≈ 45.4 µM); against Sporothrix schenckii, > 100 µg/mL; in experiment [1] it was 1.6 µg/mL (≈ 5.81 µM).
For `CN(C/C=C/c1ccccc1)CC1CCCc2ccccc21` (centres undefined), the MIC with Aspergillus fumigatus is > 100 µg/mL; in the experiment on Microsporum canis, 50 µg/mL (≈ 172 µM); with Candida parapsilosis, > 100 µg/mL; against Epidermophyton floccosum it was 50 µg/mL (≈ 172 µM); against Sporothrix schenckii, 100 µg/mL (≈ 343 µM); in experiment [1] it was 6.2 µg/mL (≈ 21.3 µM).
For the compound `CN(C/C=C/c1ccccc1)c1cccc2ccccc12`, the MIC is > 100 µg/mL in the experiment with Aspergillus fumigatus; > 100 µg/mL in the experiment on Microsporum canis; > 100 µg/mL against Candida parapsilosis; > 100 µg/mL against Epidermophyton floccosum; > 100 µg/mL in the experiment on Sporothrix schenckii; 6.2 µg/mL (≈ 22.7 µM) in experiment [1].
In the case of `Cc1ccc(CN(C)C/C=C/c2ccccc2)c2ccccc12`, the MIC with Aspergillus fumigatus was > 100 µg/mL; against Microsporum canis, 0.4 µg/mL (≈ 1.33 µM); with Candida parapsilosis, 12.5 µg/mL (≈ 41.5 µM); in the experiment with Epidermophyton floccosum it was 0.2 µg/mL (≈ 0.663 µM); with Sporothrix schenckii, 3.1 µg/mL (≈ 10.3 µM); in experiment [1], 0.1 µg/mL (≈ 0.332 µM).
As for `CN(C/C=C/C(=O)O)Cc1cccc2ccccc12`, the MIC (in the experiment with Aspergillus fumigatus; in the experiment with Microsporum canis; against Candida parapsilosis; with Epidermophyton floccosum; against Sporothrix schenckii; in experiment [1]) was < 100 µg/mL throughout.
In the case of `CN(C/C=C/c1ccccc1)C1CCCc2ccccc21` (centres undefined), the MIC was > 100 µg/mL in the experiment with Aspergillus fumigatus; 50 µg/mL (≈ 180 µM) against Microsporum canis; > 100 µg/mL against Candida parapsilosis; 50 µg/mL (≈ 180 µM) with Epidermophyton floccosum; 100 µg/mL (≈ 360 µM) against Sporothrix schenckii; 12.5 µg/mL (≈ 45.1 µM) in experiment [1].
Take `C(=C\c1ccccc1)/COCc1cccc2ccccc12`: the MIC was > 100 µg/mL against Aspergillus fumigatus; > 100 µg/mL against Microsporum canis; > 100 µg/mL in the experiment on Candida parapsilosis; > 100 µg/mL against Epidermophyton floccosum; > 100 µg/mL against Sporothrix schenckii; 3.1 µg/mL (≈ 11.3 µM) in experiment [1].
Take `CN(C/C=C/c1ccccc1)Cc1c(O)ccc2ccccc12`: the MIC in the experiment on Aspergillus fumigatus is > 100 µg/mL; against Microsporum canis it was 50 µg/mL (≈ 165 µM); in the experiment on Candida parapsilosis, > 100 µg/mL; with Epidermophyton floccosum, 50 µg/mL (≈ 165 µM); against Sporothrix schenckii, 100 µg/mL (≈ 330 µM); in experiment [1] it was 25 µg/mL (≈ 82.4 µM).
Regarding `CN(CCCc1ccccc1)Cc1cccc2ccccc12`, the minimum inhibitory concentration (MIC) in the experiment on Aspergillus fumigatus is > 100 µg/mL; in the experiment on Microsporum canis, > 100 µg/mL; in the experiment on Candida parapsilosis, > 100 µg/mL; with Epidermophyton floccosum it was > 100 µg/mL; against Sporothrix schenckii, > 100 µg/mL; in experiment [1], 12.5 µg/mL (≈ 43.2 µM).
Turning to `CN(C/C=C/Cc1ccccc1)Cc1cccc2ccccc12`, the MIC with Aspergillus fumigatus is > 100 µg/mL; in the experiment with Microsporum canis, 50 µg/mL (≈ 166 µM); against Candida parapsilosis it was > 100 µg/mL; against Epidermophyton floccosum it was 50 µg/mL (≈ 166 µM); against Sporothrix schenckii it was > 100 µg/mL; in experiment [1], 50 µg/mL (≈ 166 µM).
`CN(C/C=C/c1ccccc1)CCc1cccc2ccccc12`: the MIC in the experiment with Aspergillus fumigatus is 100 µg/mL (≈ 332 µM); in the experiment with Microsporum canis, 50 µg/mL (≈ 166 µM); against Candida parapsilosis, 50 µg/mL (≈ 166 µM); in the experiment on Epidermophyton floccosum, 25 µg/mL (≈ 82.9 µM); against Sporothrix schenckii, 25 µg/mL (≈ 82.9 µM); in experiment [1], 12.5 µg/mL (≈ 41.5 µM).
`CN(C/C=C/c1ccccc1)Cc1ccc2ccccc2c1`: the MIC in the experiment with Aspergillus fumigatus is > 100 µg/mL; against Microsporum canis, 50 µg/mL (≈ 174 µM); with Candida parapsilosis, > 100 µg/mL; against Epidermophyton floccosum it was 25 µg/mL (≈ 87 µM); with Sporothrix schenckii, 100 µg/mL (≈ 348 µM); in experiment [1] it was 25 µg/mL (≈ 87 µM).
